Laboratory results as given in PMC3525482 (Journal of inorganic biochemistry, 2012).
Where two headings read alike, the source gives them in different places.

What was measured:
[1] = target: Recombinant human FIH-1 (Homo sapiens, UniProt Q9NWT6); experiment: FIH dose-response activity assay; assay type: biochemical
[2] = target: Recombinant human PHD2 (Homo sapiens, UniProt Q9GZT9); experiment: PHD2 dose-response activity assay; assay type: biochemical; details: sub-saturating αKG
[3] = tested on: FIH; details: read-out: KM (Michaelis constant for αKG), FIH; cited from earlier work
[4] = target: FIH; details: cited from earlier work

Chain of Recombinant human FIH-1 (Q9NWT6 whole entry): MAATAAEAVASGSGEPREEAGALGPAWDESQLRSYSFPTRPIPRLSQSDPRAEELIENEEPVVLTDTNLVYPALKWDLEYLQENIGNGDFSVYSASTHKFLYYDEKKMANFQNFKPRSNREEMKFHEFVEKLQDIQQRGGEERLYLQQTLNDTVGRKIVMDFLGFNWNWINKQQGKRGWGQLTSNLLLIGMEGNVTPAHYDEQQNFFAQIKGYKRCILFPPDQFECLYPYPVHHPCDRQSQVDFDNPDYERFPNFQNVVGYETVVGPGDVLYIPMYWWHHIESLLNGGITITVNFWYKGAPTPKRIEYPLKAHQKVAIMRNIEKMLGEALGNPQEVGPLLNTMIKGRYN
Chain of Recombinant human PHD2 (Q9GZT9 177-426): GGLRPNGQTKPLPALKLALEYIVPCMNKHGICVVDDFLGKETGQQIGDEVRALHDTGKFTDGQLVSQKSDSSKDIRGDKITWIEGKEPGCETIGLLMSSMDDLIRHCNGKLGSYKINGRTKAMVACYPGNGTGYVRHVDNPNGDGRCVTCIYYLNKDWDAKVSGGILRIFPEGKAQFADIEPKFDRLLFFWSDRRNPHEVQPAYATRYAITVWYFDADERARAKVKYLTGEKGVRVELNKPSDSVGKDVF

Row | Molecule | IC50 [1] | further results
1 | Cc1ccc(C#N)c(=O)[nH]1 [Compound 1, 3-Cyano-6-methyl-2(H) pyridinone] |  | inhibition toward FIH ([1]; dose response, sub-saturating αKG): no inhibition; IC50 ([1]; read-out: FIH IC50, 10 µM αKG, 0.5 µM FIH, 50 mM HEPES pH 7.50, 37.0 °C): > 1000 µM; inhibition toward PHD2 [2]: no inhibition
2 | Oc1cccnc1O [Compound 3, 2,3-Dihydroxypyridine] | 75 µM | 
3 | O=c1cc(CO)occ1O [Compound 4, 5-Hydroxy-2-hydroxymethyl-4-pyrone] | 170 µM | 
4 | O=C(O)c1cc(=O)c(O)co1 [Compound 5, 5-Hydroxy-4-oxo-4H-pyran-2-carboxylic acid] | 50 µM | 
5 | Cc1occc(=O)c1O [Compound 6, 3-Hydroxy-2-methyl-4-pyrone] | 70 µM | 
6 | Cc1c(O)c(=O)ccn1C [Compound 7, 3-Hydroxy-1,2-dimethyl-4(1H)-pyridinone] | 30 µM | 
7 | O=[N+]([O-])c1ccc(O)c(O)c1 [Compound 8, 4-Nitrocatechol] | 10 µM | 
8 | Cc1ccc(O)c(O)c1 [Compound 9, 4-Methylcatechol] | 50 µM | 
9 | CC(C)(C)c1ccc(O)c(O)c1 [Compound 10, 4-tert-Butylcatechol] | 120 µM | 
10 | O=C(O)CCC(=O)C(=O)O [αKG, alpha-ketoglutarate] |  | Km [3]: 22 ± 6 µM
11 | N-oxalyl-D-phenylalanine |  | Ki [4]: 90 µM
